Common to all, as to test: fluorogenic hydrolysis, Michaelis-Menten
One test deals with B. subtilis esterase. The class given is biochemical, Bacillus subtilis. The note with it: enzyme 0.5 μg/mL.
Another test deals with C. antarctica lipase. It counts as biochemical, Moesziomyces antarcticus. The note with it: enzyme 10 μg/mL.
The test system of a further test is PLE. The class given is biochemical, Sus scrofa.
For the next test, the target named is T1, M. miehei lipase (Rhizomucor miehei, UniProt P19515).
T1 sequence (P19515 95-363): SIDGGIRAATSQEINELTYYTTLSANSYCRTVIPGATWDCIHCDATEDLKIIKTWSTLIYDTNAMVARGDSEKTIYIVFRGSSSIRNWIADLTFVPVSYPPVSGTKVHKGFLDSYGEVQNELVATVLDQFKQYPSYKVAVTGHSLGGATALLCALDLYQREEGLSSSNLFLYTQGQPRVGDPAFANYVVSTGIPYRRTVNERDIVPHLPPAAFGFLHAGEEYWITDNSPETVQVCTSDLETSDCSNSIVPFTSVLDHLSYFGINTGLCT
It counts as biochemical. The note with it: enzyme 10 μg/mL.

As usually defined, the Km is the concentration of substrate that gives half-maximal velocity. In the case of `CC(=O)OCOc1ccc2nc3ccc(=O)cc-3oc2c1` [Res-AME], the Km amounted to 19 ± 2 µM in the test on B. subtilis esterase, 6.8 ± 0.4 µM in the test with C. antarctica lipase and 4.9 ± 0.7 µM in the test on PLE (enzyme 0.050 μg/mL).

In the case of DDAO-AME 1, the Km stood at 4.4 ± 0.7 µM at M. miehei lipase, 6.7 ± 0.5 µM in the test with B. subtilis esterase, 9.5 ± 1.1 µM in the test on C. antarctica lipase and 7.5 ± 0.8 µM in the test on PLE (enzyme 0.5 μg/mL).

Values taken from PMC5096734 (Chembiochem : a European journal of chemical biology, 2014).
